The record followed here is US12421269B2, “SGLT2/DPP4 inhibitor and application thereof” (CGeneTech (Suzhou, China) CO., Ltd., priority 2019, dated 2025).

Assay [1] addresses T1, Human-SGLT1 (Homo sapiens, UniProt P13866).
T1 sequence (P13866 1-664): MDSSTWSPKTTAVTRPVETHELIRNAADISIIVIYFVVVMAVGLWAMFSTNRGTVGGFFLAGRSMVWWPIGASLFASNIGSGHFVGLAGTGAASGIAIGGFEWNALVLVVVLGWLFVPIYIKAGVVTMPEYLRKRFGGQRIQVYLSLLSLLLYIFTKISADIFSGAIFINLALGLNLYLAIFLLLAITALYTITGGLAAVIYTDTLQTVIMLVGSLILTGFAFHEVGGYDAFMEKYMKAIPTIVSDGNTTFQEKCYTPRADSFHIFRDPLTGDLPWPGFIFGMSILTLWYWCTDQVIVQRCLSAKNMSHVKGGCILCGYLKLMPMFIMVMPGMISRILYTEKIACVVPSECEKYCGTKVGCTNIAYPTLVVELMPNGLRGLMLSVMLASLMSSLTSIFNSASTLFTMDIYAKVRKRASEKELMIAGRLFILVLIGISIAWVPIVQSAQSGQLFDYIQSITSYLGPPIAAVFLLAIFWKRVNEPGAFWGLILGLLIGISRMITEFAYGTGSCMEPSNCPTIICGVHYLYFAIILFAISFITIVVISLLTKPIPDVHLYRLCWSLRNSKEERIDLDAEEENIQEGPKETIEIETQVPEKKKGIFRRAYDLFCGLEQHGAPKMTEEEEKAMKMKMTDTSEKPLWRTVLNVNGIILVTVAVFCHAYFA
Put plainly: SGLT1 glucose transport assay ([14C]-labeled glucose uptake). It is filed as cell-based. The conditions noted are these: cells stably expressing Human-SGLT1, 37° C., 2 hours. As for the experimental part: To test the effect of compounds on the glucose transport activity of SGLT1 transporters by measuring the amount of [^14C]-labeled glucose entering highly expressed Human-SGLT1 cells.
The cells stably expressing Human-SGLT1 used for the experiments were constructed by WuXi AppTec Shanghai. The SGLT1 cells were plated in Cytostar-T (PerkinElmer) 96-well cell culture plates and cultured overnight at 5% CO2, 37° C.
Experimental buffer: 10 mM 4-hydroxyethylpiperazine ethanesulfonic acid (HEPES), 1.2 mM magnesium chloride (MgCl2), 4.7 mM potassium chloride (KCl), 2.2 mM calcium chloride (CaCl2) and 120 mM sodium chloride (NaCl).
The compounds were diluted with 100% dimethyl sulfoxide (DMSO) at a starting concentration of 1 mM, 8 points of 5-fold serial gradient dilution was made.
3 μM [^14C]-labeled methyl α-D-glucopyranoside (Methyl a-D-glucopyranosid) was prepared with experimental buffer.
Cells were treated with 49 μL of experimental buffer, 1 μL of gradient-diluted compound and 50 μL of 3 μM [^14C]-isotope-labeled glucose solution at 37° C. for 2 hours.
Readings were taken with an isotope detector (Micro beta Reader).
The data were calculated by GraphPad Prism 5.0 software using the formula: log(inhibitor) vs. response—Variable slope to obtain the IC50 values of the tested compounds, and the experimental results are shown in Table 5.

Assay [2] has as its system SD Rat. Nature of the assay: Oral glucose tolerance (OGTT) in rats. The conditions noted are these: male SD rats, single gavage dose, Canagliflozin 3 mg/kg, test compound 10 mg/kg. It is filed as in vivo. How it is done: The animals will be acclimatized in the animal room for 1 week after arrival at the facility.
The animals are fasted for 16 hours in the metabolic cage and given the drug or solvent (5 mL/kg) according to the table above, followed immediately by 50% glucose solution (2 g/kg, 4 mL/kg).
After 1 hour of glucose administration, the animals resumed feeding, and blood samples were collected at 0 min, 20 min, 40 min, 60 min, 90 min and 120 min for blood glucose measurement; urine at 0 to 24 hours was used for urinary glucose (mg/200 g) and urine volume test, respectively.
All values were expressed as mean values. Statistical analysis was performed using Graphpad Prism 6 single factor analysis of variance Tukey's multiple comparison test. The p-value less than 0.05 was considered statistically significant.

As to `CS[C@H]1O[C@@H](c2ccc(F)c(Cc3ccc(O[C@@H]4CCN([C@H]5CO[C@H](c6cc(F)ccc6F)[C@@H](N)C5)C4)cc3)c2)[C@H](O)[C@@H](O)[C@@H]1O` [WX001], 1.28 µM corresponded to half-maximal inhibition in assay [1] (IC50). Besides, the OGTT blood glucose levels AUC0-2hr in assay [2] (glucose 2 g/kg) turned out to be 869 mmol/L/min. Moreover, in assay [2] (urine 0 to 24 hours), the Urinary glucose level is 0.7 mg/200 gBW and the Urine volume came to 10.6 mL/200 gBW.

Turning to `CS[C@H]1O[C@@H](c2cc(Cc3ccc(O[C@@H]4CCN([C@H]5CO[C@H](c6cc(F)ccc6F)[C@@H](N)C5)C4)cc3)c(F)cc2F)[C@H](O)[C@@H](O)[C@@H]1O` [WX006], 0.298 µM corresponded to half-maximal inhibition in assay [1] (IC50).
